Values quoted from earlier work in publication PMC12181400, “Leveraging viral genome sequences and machine learning models for identification of potentially selective antiviral agents” (Communications Chemistry, 2025).
Counter-ions that a name gives are not always drawn. Like-named read-outs stand apart in the source and are kept apart here.

Legend:
Settings in all cases: cited from earlier work
[1] = test system: cell viability (tox21-are-bla-p1)
[2] = test system: cell viability (tox21-ar-mda-kb2-luc-antagonist-p2)
[3] = test system: cell viability (tox21-ap1-agonist-p1)
[4] = test system: cell viability (tox21-ar-mda-kb2-luc-agonist-p3)
[5] = test system: cell viability (tox21-car-agonist-p1)
[6] = test system: cell viability (tox21-car-antagonist-p1)
[7] = curve rank −9 to 9, 0 = inactive, ref NCATS Tox21 public data browser

SMILES	tox21-are-bla-p1-viability (curve rank) [1]	tox21-ar-mda-kb2-luc-antagonist-p2-viability (curve rank) [2]	tox21-ap1-agonist-p1-viability (curve rank) [3]	tox21-ar-mda-kb2-luc-agonist-p3-viability (curve rank) [4]	tox21-car-agonist-p1-viability (curve rank) [5]	tox21-car-antagonist-p1-viability (curve rank) [6]	tox21-are-bla-p1-viability (curve rank) [1, 7]	tox21-ar-mda-kb2-luc-antagonist-p2-viability (curve rank) [2, 7]	tox21-ap1-agonist-p1-viability (curve rank) [3, 7]	tox21-ar-mda-kb2-luc-agonist-p3-viability (curve rank) [4, 7]	tox21-car-agonist-p1-viability (curve rank) [5, 7]	tox21-car-antagonist-p1-viability (curve rank) [6, 7]
NP(N)(=O)NC(=O)c1ccc(F)cc1 [Flurofamide]	0	0	0	0	0	0						
COc1ccc(OC)c(C(O)CNC(=O)CN)c1 (stereo not drawn) [Midodrine hydrochloride]	0	0	0	0	0	0						
CN(C)CCn1nnnc1SCC1=C(C(=O)O)N2C(=O)[C@@H](NC(=O)Cc3csc(N)n3)[C@H]2SC1 [Cefotiam hydrochloride]	0	0	0	0	0	0						
Cc1cc2c(cc1S(N)(=O)=O)S(=O)(=O)CCC2 [Meticrane]							0	0	0	0	0	0
CCN(CC)CC1CCCCN1CC(=O)N1c2ccccc2C(=O)Nc2cccnc21 (stereo not drawn) [AF-DX 116]	0	0	0	0	0	0						
CCOC(=O)[N-]c1cn(N2CCOCC2)n[o+]1 [Molsidomine]	0	0	0	0	0	0						
COc1cc(C(=O)NCCCCCC(=O)O)cc(OC)c1OC [Capobenic acid]							0	0	0	0	0	0
COc1ccc(-c2cc(=O)c3c(O)cc(O[C@@H]4O[C@H](CO[C@@H]5O[C@@H](C)[C@H](O)[C@@H](O)[C@H]5O)[C@@H](O)[C@H](O)[C@H]4O)cc3o2)cc1O [Diosmin]	0	0	0	0	0	0						
Cc1c(NC(C)C)c(=O)n(-c2ccccc2)n1C [Ramifenazone]	0	0	0	0	0	0						
[H]/N=C(/N)NS(=O)(=O)c1ccc(N)cc1 [Sulfaguanidine]	0	0	0	0	0	0						
CO[C@@]1(NC(=O)CSCC#N)C(=O)N2C(C(=O)O)=C(CSc3nnnn3C)CS[C@@H]21 [Cefmetazole sodium]	0	0	-0.67	0	0	0						
C[C@](N)(Cc1ccc(O)c(O)c1)C(=O)O [Methyldopa]	0	0	0	0	0	0						
O=C(NCCO[N+](=O)[O-])c1cccnc1 [Nicorandil]	0	0	0	0	0	0						
COc1cc(C(=O)NCc2ccc(OCCN(C)C)cc2)cc(OC)c1OC [Trimethobenzamide hydrochloride]	0	0	0	0	0	0						
C#CCN(C)[C@H](C)Cc1ccccc1 [Selegiline hydrochloride]							0	0	0	0	0	0
Nc1ccc(C(=O)Oc2ccccc2)c(O)c1 [Phenyl 4-aminosalicylate]							0	0	0	0	0	0
CN1C(C(=O)Nc2ccccn2)=C(O)c2ccccc2S1(=O)=O [Piroxicam]	0	0	0	0	0	0						
CC(C)(C)NCC(O)COc1cccc2c1CCC(=O)N2 (stereo not drawn) [Carteolol hydrochloride]	0	0	0	0	0	0						
c1ccc2c(c1)CCCC2C1=NCCN1 (stereo not drawn) [Tetrahydrozoline hydrochloride]	0	0	0	0	0	0						
NC(=O)N1c2ccccc2C=Cc2ccccc21 [Carbamazepine]	0	0	0	0	0	0						
CCCCCC(N)=O [Hexanamide]							0	0	0	0	0	0
CCOc1ccc(NC(C)=O)cc1 [Phenacetin]	0	0	0	0	0	0						
CC1(C)Oc2ccc(C#N)cc2[C@@H](N2CCCC2=O)[C@@H]1O [Levcromakalim]	0	0	0	0	0	0						
O=C(O)c1cc(=O)c2ccccc2o1 [Chromocarb]							0	0	0	0	0	0
CC(C)(Sc1cc(C(C)(C)C)c(O)c(C(C)(C)C)c1)Sc1cc(C(C)(C)C)c(O)c(C(C)(C)C)c1 [Probucol]	0	0	0	0	0	0						
CC(=O)NCCCCCC(=O)O [Acexamic acid]							0	0	0	0	0	0
CN1Cc2c(N)cccc2C(c2ccccc2)C1 (stereo not drawn) [Nomifensine maleate]	0	0	0	0	0	0						
CC(C)N(CCC(C(N)=O)(c1ccccc1)c1ccccn1)C(C)C (stereo not drawn) [Disopyramide]	0	0	0	0	0	0						
